The text below walks through data of article PMC12299174, “Design, Synthesis, and Evaluation of 1-Benzylpiperidine and 1-Benzoylpiperidine Derivatives as Dual-Target Inhibitors of Acetylcholinesterase and Serotonin Transporter for Alzheimer′s Disease” (Molecules, 2025).

Structures can show the parent of a compound that is named as a salt. Where two headings read alike, the source gives them in different places.

Assay [1] deals with AChE (Homo sapiens, UniProt P22303). Briefly: biochemical. The note with it: means ± SD of three determinations, 30 min preincubation at 25 °C, pH 7.5.
In assay [2] the target is BuChE (Homo sapiens, UniProt P06276). Description: biochemical.
Assay [3] has as its target T1, h-SERT (Homo sapiens, UniProt P31645).
T1 construct: purchased Perkin-Elmer RBHSTM400UA; host or cells: HEK293 membranes
Description: biochemical. The format is binding. The note with it: displacement of 2 nM [3H]-paroxetine, HEK293 membranes, Cheng-Prusoff. On the procedure:
Competitive binding studies were conducted on homogenized membranes prepared from the human clonal cell line HEK293 for h-SERT. […] The inhibitory activity on AChE or butyrylcholinesterase (BuChE), which has also been regarded as a relevant cholinesterase target in AD [23], was determined using the spectrophotometric method, as described by Ellman, modified from Mella (Section 3.3).
The cellular background HEK293 containing 400 µL of h-SERT (Code RBHSTM400UA, Perkin-Elmer, Santiago, Chile) was diluted in 12 Eppendorf tubes, containing a storage buffer solution of Tris-HCl 50 mM (pH 7.4), EDTA 0.5 mM, MgCl2 10 mM, and 10% sucrose, obtaining a final volume between 260 and 340 µL, which was finally stored at −80 °C [27]. […] Non-specific binding was determined using […] fluoxetine. After 30 min at 27 °C, the incubation was stopped by rapid filtration on a Whatman GF/C filter preabsorbed in 0.5% polyethylenimine (PEI), washed with cold working buffer solution, 3 × 3 mL, filtered, and scintillation liquid was added.

The subject of assay [4] is human AChE; h-AChE. The note with it: read-out: IC50 in human AChE (h-AChE); ref [14],[15],[16]; cited from earlier work.
Setting [5] is: means ± SD of three determinations, 30 min preincubation at 25 °C, pH 7.5, read-out: BuChE IC50.

Sequence of AChE (P22303 32-614): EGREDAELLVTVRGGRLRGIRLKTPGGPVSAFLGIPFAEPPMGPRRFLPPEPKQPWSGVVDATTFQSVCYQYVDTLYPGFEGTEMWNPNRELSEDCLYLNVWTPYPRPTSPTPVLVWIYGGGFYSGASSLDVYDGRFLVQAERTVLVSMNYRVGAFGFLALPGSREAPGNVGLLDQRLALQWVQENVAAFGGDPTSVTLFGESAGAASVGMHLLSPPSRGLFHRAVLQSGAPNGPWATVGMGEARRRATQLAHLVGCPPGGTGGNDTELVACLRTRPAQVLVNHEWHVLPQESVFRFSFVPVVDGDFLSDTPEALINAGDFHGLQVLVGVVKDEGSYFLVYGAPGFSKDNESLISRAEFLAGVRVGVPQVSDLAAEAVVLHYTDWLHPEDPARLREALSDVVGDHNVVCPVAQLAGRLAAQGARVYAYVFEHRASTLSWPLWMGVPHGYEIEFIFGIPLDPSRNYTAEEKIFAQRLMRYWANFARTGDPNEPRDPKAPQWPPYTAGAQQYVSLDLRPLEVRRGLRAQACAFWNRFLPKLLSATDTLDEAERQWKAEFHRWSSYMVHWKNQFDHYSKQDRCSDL
Sequence of BuChE (P06276 29-602): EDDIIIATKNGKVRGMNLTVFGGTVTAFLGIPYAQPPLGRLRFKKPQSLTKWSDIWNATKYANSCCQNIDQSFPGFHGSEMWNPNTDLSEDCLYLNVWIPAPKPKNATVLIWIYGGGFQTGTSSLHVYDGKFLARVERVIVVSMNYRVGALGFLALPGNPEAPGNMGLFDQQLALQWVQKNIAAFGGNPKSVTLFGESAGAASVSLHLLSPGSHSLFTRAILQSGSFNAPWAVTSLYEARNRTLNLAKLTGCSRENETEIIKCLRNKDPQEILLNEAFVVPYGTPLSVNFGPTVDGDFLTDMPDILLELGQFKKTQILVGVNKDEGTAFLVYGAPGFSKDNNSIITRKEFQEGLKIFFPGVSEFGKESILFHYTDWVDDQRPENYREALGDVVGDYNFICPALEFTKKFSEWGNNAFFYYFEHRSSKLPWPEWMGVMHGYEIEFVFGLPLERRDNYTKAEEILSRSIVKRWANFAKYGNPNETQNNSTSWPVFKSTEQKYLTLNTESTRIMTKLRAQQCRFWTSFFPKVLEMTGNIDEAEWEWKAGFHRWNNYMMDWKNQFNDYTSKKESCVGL
T1 sequence (P31645 whole entry): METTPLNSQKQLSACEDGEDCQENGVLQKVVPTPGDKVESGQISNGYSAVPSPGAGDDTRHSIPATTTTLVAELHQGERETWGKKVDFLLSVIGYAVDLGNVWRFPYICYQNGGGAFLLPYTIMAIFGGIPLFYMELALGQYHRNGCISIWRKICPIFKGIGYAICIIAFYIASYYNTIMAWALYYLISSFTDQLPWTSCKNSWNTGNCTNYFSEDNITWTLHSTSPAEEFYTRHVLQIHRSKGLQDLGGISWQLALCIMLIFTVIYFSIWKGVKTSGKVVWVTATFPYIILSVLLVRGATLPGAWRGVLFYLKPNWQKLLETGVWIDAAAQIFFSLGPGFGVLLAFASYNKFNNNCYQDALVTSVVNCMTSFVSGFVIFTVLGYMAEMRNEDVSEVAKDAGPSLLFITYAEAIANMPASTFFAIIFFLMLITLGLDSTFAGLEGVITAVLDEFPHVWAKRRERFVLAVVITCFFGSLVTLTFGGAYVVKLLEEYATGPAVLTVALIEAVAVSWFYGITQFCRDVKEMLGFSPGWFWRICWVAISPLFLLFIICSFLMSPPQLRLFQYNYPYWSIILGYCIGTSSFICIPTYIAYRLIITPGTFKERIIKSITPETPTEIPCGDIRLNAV

A word on the IC50: it is the concentration needed to halve the response being measured. The Ki is a dissociation constant, usually derived from enzyme kinetics or from competition with a known ligand. Take `COc1cc2c(cc1OC)CN(C(=O)C1CCN(Cc3ccccc3)CC1)CC2` [Compound 7, (1-Benzylpiperidin-4-yl)(6,7-dimethoxy-3,4-dihydroisoquinolin-2(1H)-yl)methanone]: the results for the IC50 in assay [1] (read-out: AChE IC50) and in assay [2] (setting [5]) were 34.4 ± 0.51 µM and greater than 500 µM, respectively. The same compound yielded an inhibition constant Ki in assay [3] greater than 100 µM.

Consider `COc1cc2c(cc1OC)CN(C(=O)C1CCN(Cc3cccc(F)c3)CC1)CC2` [Compound 8, (6,7-Dimethoxy-3,4-dihydroisoquinolin-2(1H)-yl)(1-(3-fluorobenzyl)piperidin-4-yl)methanone], for which the half-maximal inhibitory concentration (IC50) is 41.2 ± 3.17 µM in assay [1] (read-out: AChE IC50) and greater than 500 µM in assay [2] (setting [5]). In assay [3], the Ki was greater than 100 µM.

As for `COc1cc2c(cc1OC)CN(C(=O)C1CCN(Cc3cccc(Cl)c3)CC1)CC2` [Compound 9, (1-(3-Chlorobenzyl)piperidin-4-yl)(6,7-dimethoxy-3,4-dihydroisoquinolin-2(1H)-yl)methanone], the IC50 in assay [1] (read-out: AChE IC50) came out at 34.5 ± 1.97 µM; in assay [2] (setting [5]) it was 268 ± 13.8 µM. In assay [3], this compound yielded an inhibitory constant (Ki) greater than 100 µM.

`COc1cc2c(cc1OC)CN(C(=O)C1CCN(Cc3cccc(Br)c3)CC1)CC2` [Compound 10, (1-(3-Bromobenzyl)piperidin-4-yl)(6,7-dimethoxy-3,4-dihydroisoquinolin-2(1H)-yl)methanone]: the 50% inhibitory concentration (IC50) in assay [1] (read-out: AChE IC50) stood at 28.3 ± 0.87 µM; in assay [2] (setting [5]), 426 ± 28.6 µM. The same compound displayed a Ki in assay [3] greater than 100 µM.

For `COc1cc2c(cc1OC)CN(C(=O)C1CCN(Cc3ccc(Cl)cc3Cl)CC1)CC2` [Compound 11, (1-(2,4-Dichlorobenzyl)piperidin-4-yl)(6,7-dimethoxy-3,4-dihydroisoquinolin-2(1H)-yl)methanone], the IC50 in assay [1] (read-out: AChE IC50) and in assay [2] (setting [5]) was greater than 500 µM in each case. Also, in assay [3], the inhibition constant Ki is greater than 100 µM.

Regarding `COc1cc2c(cc1OC)CN(CC1CCN(C(=O)c3ccccc3)CC1)CC2` [Compound 12, (4-((6,7-Dimethoxy-3,4-dihydroisoquinolin-2(1H)-yl)methyl)piperidin-1-yl)(phenyl)methanone], the IC50 in assay [1] (read-out: AChE IC50) is 290 ± 10.9 µM; in assay [2] (setting [5]), greater than 500 µM. The compound also registered an inhibition constant Ki in assay [3] of 2.62 ± 0.82 µM.

Regarding `COc1cc2c(cc1OC)CN(CC1CCN(C(=O)c3cccc(F)c3)CC1)CC2` [Compound 13, (4-((6,7-Dimethoxy-3,4-dihydroisoquinolin-2(1H)-yl)methyl)piperidin-1-yl)(3-fluorophenyl)methanone], the 50% inhibitory concentration (IC50) in assay [1] (read-out: AChE IC50) and in assay [2] (setting [5]) was greater than 500 µM throughout. In addition, in assay [3], the Ki was found to be 1.91 ± 0.77 µM.

For the compound `COc1cc2c(cc1OC)CN(CC1CCN(C(=O)c3cccc(Cl)c3)CC1)CC2` [Compound 14, (3-Chlorophenyl)(4-((6,7-dimethoxy-3,4-dihydroisoquinolin-2(1H)-yl)methyl)piperidin-1-yl)methanone], the half-maximal inhibitory concentration (IC50) in assay [1] (read-out: AChE IC50) and in assay [2] (setting [5]) was greater than 500 µM throughout. Further, the affinity in assay [3], expressed as Ki, was 2.43 ± 0.24 µM.

In the case of `COc1cc2c(cc1OC)CN(CC1CCN(C(=O)c3cccc(Br)c3)CC1)CC2` [Compound 15, (3-Bromophenyl)(4-((6,7-dimethoxy-3,4-dihydroisoquinolin-2(1H)-yl)methyl)piperidin-1-yl)methanone], the figures for the IC50 in assay [1] (read-out: AChE IC50) and in assay [2] (setting [5]) were 242 ± 24.4 µM and greater than 500 µM, respectively. In assay [3], this compound registered an inhibition constant (Ki) of 1.47 ± 0.73 µM.

Regarding `COc1cccc(C(=O)N2CCC(CN3CCc4cc(OC)c(OC)cc4C3)CC2)c1` [Compound 16, (4-((6,7-Dimethoxy-3,4-dihydroisoquinolin-2(1H)-yl)methyl)piperidin-1-yl)(3-methoxyphenyl)methanone], the half-maximal inhibitory concentration (IC50) is 439 ± 28 µM in assay [1] (read-out: AChE IC50) and greater than 500 µM in assay [2] (setting [5]). For the same compound, the affinity in assay [3], expressed as Ki, was 1.59 ± 0.58 µM.

As to `O=C(Cc1ccccc1)OCC1CCN(Cc2ccccc2)CC1` [Compound 18, (1-Benzylpiperidin-4-yl)methyl-2-phenylacetate], the half-maximal inhibitory concentration (IC50) stood at 200 ± 8.61 µM in assay [1] (AChE IC50 (µM)) and 256 ± 5.03 µM in assay [2]. Moreover, the affinity in assay [3] corresponds to a Ki of 27.1 ± 3.4 µM.

As to `O=C(Cc1ccc(F)cc1)OCC1CCN(Cc2ccccc2)CC1` [Compound 19, (1-Benzylpiperidin-4-yl)methyl-2-(4-fluorophenyl)acetate], the half-maximal inhibitory concentration (IC50) came to 5.1 ± 0.24 µM in assay [1] (read-out: AChE IC50) and 26.8 ± 0.81 µM in assay [2] (setting [5]).

As to `O=C(Cc1ccc(Cl)cc1)OCC1CCN(Cc2ccccc2)CC1` [Compound 20, (1-Benzylpiperidin-4-yl)methyl-2-(4-chlorophenyl)acetate], the IC50 was 259 ± 14.6 µM in assay [1] (read-out: AChE IC50) and greater than 500 µM in assay [2] (setting [5]). Moreover, the Ki in assay [3] was greater than 100 µM.

Regarding `O=C(OCC1CCN(Cc2ccccc2)CC1)C(c1ccccc1)c1ccccc1` [Compound 21, (1-Benzylpiperidin-4-yl)methyl-2,2-diphenylacetate], the results for the concentration for half-maximal inhibition (IC50) in assay [1] (read-out: AChE IC50) and in assay [2] (setting [5]) were greater than 500 µM and 6.16 ± 0.29 µM, respectively. Affinity in assay [3] was put at a Ki of 25.5 ± 1.01 µM.

`O=C(OCC1CCN(Cc2ccccc2)CC1)c1ccc2ccccc2c1` [Compound 22, (1-Benzylpiperidin-4-yl)methyl-2-naphthoate]: the IC50 in assay [1] (read-out: AChE IC50) was found to be 61.7 ± 2.56 µM; in assay [2] (setting [5]), 59.3 ± 1.42 µM. In assay [3], the affinity corresponds to a Ki of 26.9 ± 2.57 µM.

For `COc1ccc2c3c1O[C@H]1C[C@@H](O)C=C[C@@]31CCN(C)C2` [GAL, Galantamine hydrobromide], the half-inhibitory concentration (IC50) in assay [4] is 18.6 µM.
